US11666642B2, “PDE5 compositions and methods for immunotherapy” (Obsidian Therapeutics, Inc., priority 2017, dated 2023)

Columns and labels:
[1] = test system: hPDE5 mutants fused to GFP in HCT116 cells; experiment: Tadalafil dose response of combination mutants, MFI by FACS; assay type: cell-based, human
Description: The response of hPDE5 combination mutants to increasing doses of Tadalafil was tested. HCT116 cells transduced with hPDE5 constructs were treated with Tadalafil for 24 hours at doses ranging from 0.14 to 100 μM. Mean fluorescence intensity (MFI) was measured by FACS. Parental HCT116 and cells expressing OT-hPDE5N-019 comprising hPDE5 wildtype construct were also included as controls. The response of the combination mutants to Tadalafil was compared to the response of the single mutant construct OT-hPDE5N-020. The stabilization ratio (SR) was calculated as the fold change in GFP intensity in Tadalafil treated samples compared to treatment with DMSO (i.e. in the absence of ligand) with the same construct. The destabilizing mutation coefficient was calculated as the fold change in GFP intensity in the hPDE5 mutant constructs compared to the hPDE5 wildtype construct (OT-hPDE5N-0019) in the absence of the ligand. Destabilizing mutation coefficient less than 1 are desirable. Stabilization ratios greater than 1 are desired in DDs.

[2] = test system: hPDE5 mutants fused to GFP in HCT116 cells; experiment: Response to Sildenafil (5 or 0.5 μM) over time, MFI by FACS; assay type: cell-based, human
Description: Mean fluorescence intensity (MFI) was measured by FACS. […] The destabilizing mutation coefficient was calculated as the fold change in GFP intensity in the hPDE5 mutant constructs compared to the hPDE5 wildtype construct (OT-hPDE5N-019) in the absence of the ligand. Destabilizing mutation coefficient less than 1 are desirable. Stabilization ratios greater than 1 are desired in DDs. The results and stabilization ratios for time course experiments with 5 or 0.5 μM are presented in Table 30 and Table 31 respectively.

In the case of “OT-hPDE5N-020: construct consisting of E535-Q860 amino acids of hPDE5 with the R732L mutant, SG linker, AcGFP; single mutant construct”, the MFI ([1]; DMSO, 24 hours, HCT116) is reported as 3806, the destabilizing mutation coefficient ([1]; Tadalafil dose response experiment, absence of ligand, vs OT-hPDE5N-019) is reported as 0.1 and the “stabilization ratios over time, Sildenafil 0.5 μM” value ([2]; 0-72 hours, HCT116) is reported as “greater stabilization”. It also gave an MFI ([2]; Sildenafil 0.5 μM, 0 hours) of 2727, an MFI ([2]; Sildenafil 0.5 μM, 4 hours) of 4127 and a Stabilization ratio ([2]; Sildenafil 0.5 μM, 4 hours) of 1.51. The MFI ([2]; Sildenafil 0.5 μM, 8 hours) was 5461, the Stabilization ratio ([2]; Sildenafil 0.5 μM, 8 hours) was 2.00 and the MFI ([2]; Sildenafil 0.5 μM, 12 hours) was 9058. For the same substance, the Stabilization ratio ([2]; Sildenafil 0.5 μM, 12 hours) was 3.32, the MFI ([2]; Sildenafil 0.5 μM, 16 hours) was 14469 and the Stabilization ratio ([2]; Sildenafil 0.5 μM, 16 hours) was 5.31. It also gave an MFI ([2]; Sildenafil 0.5 μM, 20 hours) of 16142, a Stabilization ratio ([2]; Sildenafil 0.5 μM, 20 hours) of 5.92 and an MFI ([2]; Sildenafil 0.5 μM, 24 hours) of 20524. It also gave a Stabilization ratio ([2]; Sildenafil 0.5 μM, 24 hours) of 7.53, an MFI ([2]; Sildenafil 0.5 μM, 48 hours) of 45754 and a Stabilization ratio ([2]; Sildenafil 0.5 μM, 48 hours) of 16.78. For the same substance, the MFI ([2]; Sildenafil 0.5 μM, 72 hours) was 58786, the Stabilization ratio ([2]; Sildenafil 0.5 μM, 72 hours) was 21.56 and the MFI ([2]; Sildenafil 5 μM, 0 hours) was 2668. The MFI ([2]; Sildenafil 5 μM, 4 hours) was 4236, the Stabilization ratio ([2]; Sildenafil 5 μM, 4 hours) was 1.59 and the MFI ([2]; Sildenafil 5 μM, 8 hours) was 5672. It also gave a Stabilization ratio ([2]; Sildenafil 5 μM, 8 hours) of 2.13, an MFI ([2]; Sildenafil 5 μM, 12 hours) of 9097 and a Stabilization ratio ([2]; Sildenafil 5 μM, 12 hours) of 3.41. The MFI ([2]; Sildenafil 5 μM, 16 hours) was 14855, the Stabilization ratio ([2]; Sildenafil 5 μM, 16 hours) was 5.57 and the MFI ([2]; Sildenafil 5 μM, 20 hours) was 15529. The Stabilization ratio ([2]; Sildenafil 5 μM, 20 hours) was 5.82, the MFI ([2]; Sildenafil 5 μM, 24 hours) was 20955 and the Stabilization ratio ([2]; Sildenafil 5 μM, 24 hours) was 7.85. It also gave an MFI ([2]; Sildenafil 5 μM, 48 hours) of 46604, a Stabilization ratio ([2]; Sildenafil 5 μM, 48 hours) of 17.47 and an MFI ([2]; Sildenafil 5 μM, 72 hours) of 58479. For the same substance, the Stabilization ratio ([2]; Sildenafil 5 μM, 72 hours) was 21.92.
